How the values were obtained:
sugar beet = test: Test B pre/postemergence sugar beet; format: in vivo, Beta vulgaris
In short: (§1)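 Herbicidal effect was estimated by eye on a ten-point control scale after plants spent twelve to sixteen days in a greenhouse following soil or foliar treatment. Foliar sprays targeted plants at one to four leaves; all doses were formulated in a non-phytotoxic solvent with surfactant.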

cocklebur = test: Test B pre/postemergence cocklebur; format: in vivo, Xanthium strumarium
In short: as §1

rape = test: Test B pre/postemergence rape; format: in vivo, Brassica napus
In short: as §1

bamyardgrass = test: Test B flood test barnyardgrass; format: in vivo, Echinochloa crus-galli
In short: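 Read-out is a visual response score from 0 (no effect) to 10 (complete control), assigned by comparison with untreated controls. Treatment was applied at the 2-leaf stage, and plants stayed in the greenhouse for twelve to sixteen days before scoring.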

[1] = Postemergence, Rate 62 g/ha, scale 0 to 10, 0 is no effect, 10 is complete control
[2] = Postemergence, Rate 250 g/ha, scale 0 to 10, 0 no effect, 10 complete control
[3] = Preemergence, Rate 62 g/ha, scale 0 to 10, 0 is no effect, 10 is complete control
[4] = Preemergence, Rate 125 g/ha, scale 0 to 10 (0 no effect, 10 complete control)
[5] = Preemergence, Rate 250 g/ha, scale of 0 to 10 where 0 is no effect and 10 is complete control
[6] = Preemergence, Rate 500 g/ha, scale 0 (no effect) to 10 (complete control)
[7] = Rate 125 g/ha, Postemergence, scale 0 to 10, 0 no effect, 10 complete control
[8] = Rate 500 g/ha, Postemergence, scale 0 to 10, 0 no effect, 10 complete control
[9] = Rate 125 g/ha, Postemergence section (flood test species), scale 0 to 10, 0 no effect, 10 complete control
[10] = Rate 500 g/ha, listed under Postemergence (flood test species), scale 0 to 10, 0 no effect, 10 complete control
[11] = flood test, listed under Postemergence, Rate 250 g/ha, scale 0 to 10, 0 no effect, 10 complete control
[12] = Preemergence, Rate 62 g/ha, scale 0 to 10 (0 no effect, 10 complete control)

Row | SMILES | Sugarbeets plant response rating (sugar beet; [1]) | Sugarbeets plant response rating (sugar beet; [2]) | Plant response rating, Sugarbeets (sugar beet; [3]) | Plant response rating, Sugarbeets (sugar beet; [4]) | Plant response rating, Sugarbeets (sugar beet; [5]) | Sugarbeets plant response rating (sugar beet; [6]) | Sugarbeets plant response rating (sugar beet; [7]) | Sugarbeets plant response rating (sugar beet; [8]) | Cocklebur plant response rating (cocklebur; [1]) | Cocklebur plant response rating (cocklebur; [2]) | Plant response rating, Cocklebur (cocklebur; [5]) | Cocklebur plant response rating (cocklebur; [7]) | Cocklebur plant response rating (cocklebur; [8]) | Rape plant response rating (rape; [1]) | Rape plant response rating (rape; [2]) | Plant response rating, Rape (rape; [4]) | Plant response rating, Rape (rape; [5]) | Rape plant response rating (rape; [6]) | Rape plant response rating (rape; [7]) | Rape plant response rating (rape; [8]) | other results
1 | Cc1cccc(C)c1-n1c(=O)on(C(=O)N(c2ccc(Cl)cc2)C(C)C)c1=O [Compound 47] | 0 | 0 | 0 | 0 | 0 | 0 | 0 | 0 | 0 | 2 | 0 | 0 | 2 | 0 | 0 | 0 | 0 | 0 | 0 | 0 | Plant response rating, Cocklebur (cocklebur; [3]): 0; Plant response rating, Cocklebur (cocklebur; [4]): 0; Cocklebur plant response rating (cocklebur; [6]): 0; Plant response rating, Rape (rape; [3]): 0; Barnyardgrass plant response rating (bamyardgrass; Rate 125 g/ha, Pre-emergence, flood test species, scale 0 to 10 where 0 is no effect and 10 is complete control): 0; Barnyardgrass plant response rating (bamyardgrass; Rate 250 g/ha, headed Pre-emergence (flood test species), scale 0 to 10 (0 no effect, 10 complete control)): 0; Plant response rating, Barnyardgrass (bamyardgrass; Rate 500 g/ha, headed Pre-emergence (flood test species), scale 0 to 10 (0 no effect, 10 complete control)): 1; Barnyardgrass plant response rating (bamyardgrass; Rate 1000 g/ha, Pre-emergence (as headed), scale 0 to 10): 6; Barnyardgrass plant response rating (bamyardgrass; Rate 2000 g/ha, Pre-emergence (as headed), scale 0 to 10, 0 no effect, 10 complete control): 8
2 | Cc1cccc(Cl)c1-n1c(=O)on(C(=O)N(c2ccc(F)cc2)C(C)C)c1=O [Compound 53] | 0 | 1 | 0 | 0 | 0 | 3 | 0 | 2 | 0 | 4 | 0 | 0 | 4 | 0 | 0 | 0 | 0 | 0 | 0 | 3 | Plant response rating, Cocklebur (cocklebur; [3]): 0; Cocklebur plant response rating (cocklebur; [6]): — 0 0 0 0; Plant response rating, Rape (rape; [3]): 0; Barnyardgrass plant response rating (bamyardgrass; [1]): 0; Barnyardgrass plant response rating (bamyardgrass; [9]): 0; Barnyardgrass plant response rating (bamyardgrass; [10]): 0; Barnyardgrass plant response rating (bamyardgrass; [11]): 0
3 | CCc1cccc(C)c1-n1c(=O)on(C(=O)N(c2ccc(F)cc2)C(C)C)c1=O [Compound 52] | 0 | 0 | 0 | 0 | 0 | 0 | 0 | 0 | 0 | 0 | 0 | 0 | 0 | 0 | 0 | 0 | 0 | 0 | 0 | 0 | Plant response rating, Cocklebur (cocklebur; [3]): 0; Plant response rating, Cocklebur (cocklebur; [4]): 0; Plant response rating, Rape (rape; [3]): 0; Barnyardgrass plant response rating (bamyardgrass; [1]): 0; Barnyardgrass plant response rating (bamyardgrass; [9]): 0; Barnyardgrass plant response rating (bamyardgrass; [10]): 0; Barnyardgrass plant response rating (bamyardgrass; [11]): 0
4 | COc1cccc(C)c1-n1c(=O)on(C(=O)N(c2ccc(F)cc2F)C(C)C)c1=O [Compound 74] | 0 | 0 | – | 0 | 2 | 4 | 0 | 0 | 0 | 0 | 0 | 0 | 4 | 0 | 0 | 0 | 0 | 5 | 0 | 2 | Sugarbeets plant response rating (sugar beet; [12]): 0; Cocklebur plant response rating (cocklebur; [12]): 0; Plant response rating, Cocklebur (cocklebur; [4]): 0; Cocklebur plant response rating (cocklebur; [6]): 0; Rape plant response rating (rape; [12]): 0; Barnyardgrass plant response rating (bamyardgrass; [1]): 0; Barnyardgrass plant response rating (bamyardgrass; [9]): 0; Barnyardgrass plant response rating (bamyardgrass; [10]): 0; Barnyardgrass plant response rating (bamyardgrass; [11]): 0

— patent publication US6737383B1, “Herbicidal oxadiazolidines” (priority 1999, dated 2004)
